Patent US12115178B2, “Acylated active agents and methods of their use for the treatment of autoimmune disorders” (Flagship Pioneering Innovations V, Inc., priority 2018, dated 2024)

Columns and labels:
[1] = tested on: Primary Human Peripheral Blood Mononuclear Cells (PBMCs); assay: Inflammatory signals in LPS-treated primary human PBMCs; type: cell-based; conditions: 100 uM, 24 hours
Protocol: Human donor blood (8 mL) was collected in sodium citrate CPT tubes and centrifuged at 1,600×g for 20 minutes at room temperature. Buffy coat containing PBMCs was collected and transferred to a 50 mL conical tube containing 30 mL of RPMI-1640 medium at room temperature (supplemented with penicillin-streptomycin). PBMCs samples were centrifuged at 400×g for 10 minutes at 10° C. The pelleted PBMCs were washed twice in 10 ml of RPMI-1640 medium (supplemented with penicillin-streptomycin), then resuspended in RPMI-1640 medium (supplemented with penicillin-streptomycin, fetal bovine serum, and L-Glutamine). PBMCs were filtered through a 70 micron mesh to remove any cellular debris. […] PBMCs in a 96-well plate were rested for 30 minutes in a 37° C., 5% CO2 incubator, then subsequently treated with 10 μl of indicated compound. After 2 hours 10 μL of LPS (O111:B4) 1 mg/mL was added to test wells. After 24 hours of incubation at 37° C., 5% CO2, 100 μL of cell supernatant was collected and transferred to a 96-well plate (non-tissue treated, flat bottom). The plate was centrifuged at 350×g for 5 minutes at room temperature, and then the clear supernatant transferred to a new 96-well plate (non-tissue treated, flat bottom). The remaining cells were tested for viability using CellTiter-Glo® Luminescent Cell Viability Assay (Promega). The supernatant was analyzed for TNFα, IL-6 and […] Systems), using Luminex Immunoassay Technology (MAGPIX System). Cytokine levels of LPS treated DMSO control samples were set to 100%, and compound treated samples were expressed relative to this (Table 3).

neutrophil = assay: Neutrophil chemokine production assay; type: cell-based, human; conditions: 12 h
Protocol: A volume 25 mL of human blood was layered over 15 mL of Histopaque®-1077 and centrifuged at 500 g, RT, for 30 min with no break applied to the centrifuge. The PBMC band and Histopaque®-1077 layer were removed leaving behind the bottom red layer which was mixed with 40 mL of 1× red blood cell (RBC) lysis buffer (Sigma-Aldrich) was and split into two 50 mL tubes. The volume for both fractions was brought to 50 mL with RBC lysis buffer, mixed by inversion, and then incubated at RT for 10 min. Solutions were centrifuged at 250 g, for 10 min at RT and the supernatant liquids removed. The reddish pellets were re-suspended in 1 mL of RBC lysis buffer and combined. The cell suspension was incubated for 5 min at RT in RBC lysis buffer. After incubation 45 mL of Hanks Balanced Salt Solution with no calcium, magnesium or phenol red (HBSS−) was added, the cell suspension was spun (250 g for 10 min at RT), and supernatant liquids were removed. The white pellet was re-suspended in 1 mL of HBSS−, and cell counts were determined. The neutrophil cell suspension was brought to a concentration of 1.11e6 cells/mL in RPMI complete (Sigma-Aldrich), and 180 μL of cell suspension was transferred to all wells within a sterile 96-well tissue culture treated plate resulting in 2.0e5 cells/well. […] After incubation, 10 μL of 2 μg/mL LPS solution in RPMI complete was added to each well except for control wells, which received an additional 10 μL of media. Cells were incubated for 12 h (37° C., 5% CO2), after which plates were centrifuged at 250 g, RT, for 5 min and supernatant liquids were obtained and stored at −80° C. until analyzed via Luminex® Multiplex Assay for various chemokines and cytokines. Three data points were acquired from two different blood donors and averaged.

Caco-2 colonocytes = assay: Human Caco-2 barrier integrity assay (TEER); type: cell-based; conditions: 48 hours
Protocol: At 70-80% confluency, cells were trypsinized and seeded in 0.4 cm^2 transwell collagen I coated membranes with supplemented DMEM in both apical and basolateral compartments. Cells were seeded at a density of 200,000 cells per well and maintained for 10 days to form a polarized barrier with a TransEpithelial […] After 48 hours, TEER readings were taken again and viability was measured by CellTiter 96® AQueous One Solution Cell Proliferation Assay (Promega). The percent change in TEER over the 48 hours was determined and normalized to the 0.1% DMSO control (Table 6).

AhR = AhR activation in Caco-2 cells through CYP1A1 mRNA expression; conditions: overnight
Protocol: Caco-2 cells from American Type Culture Collection (ATCC) were plated in a sterile tissue culture treated 96-well plate (ThermoFisher) at […], and grown overnight at 37° C., 5% CO2 in DMEM complete (Gibco) in order to achieve confluence. After the incubation medium was aspirated off of the Caco-2 monolayers, tissues were then washed with 200 μL of warmed PBS solution, and subsequently 190 μL of pre-warmed growth medium was added to each well. Compounds of interest were diluted at a 20× concentration in growth medium containing 2% DMSO, and 10 μL of compound solutions were added to respective wells in triplicate. Compounds where incubated overnight at 37° C., 5% CO2. 2-(1′H-indole-3′-carbonyl)-thiazole-4-carboxylic acid methyl ester (ITE) was used as the positive control for AhR activation at 1 and 100 μM concentrations. At the end of the incubation, medium was aspirated off of the Caco-2 cells, and the cells washed with 100 μL of cold PBS solution. RNA was extracted via the TaqMan™ Gene Expression Cells-to-CT™ Kit (ThermoFisher) according to the manufacturers protocol. The QuantStudio 6 Flex (Applied Biosciences) was used to analyze mRNA levels of CYP1A1 using GAPDH as the endogenous control. TaqMan™ probe sets for both genes were acquired from ThermoFisher. Samples were run in triplicate and data was analyzed using the QuantStudio software and reported as linear (Table 1) and log 2(ΔΔCT) values. Statistical analysis was performed using a two-tailed t-test comparing CYP1A1 levels in the presence of each individual compound to the vehicle negative control.

[2] = tested on: adoptive T-cell transfer mice; assay: Adoptive T-cell transfer study; type: in vivo, CB-17 SCID mice; conditions: compound 44 100 mg/kg, olsalazine 30 mg/kg, through day 42, compared to the vehicle control
Description: On study day 0, naïve T-cells were obtained from the spleen of 11 to 12 week-old Balb/C mice using the SCID Cell Separation Protocol with the following labelling scheme; CD4+CD45RB^highCD25− and CD4+CD45RB^lowCD25+ cell (APC CD4 Antibody (100412), FITC CD45RB Antibody (103306), PE CD25 Antibody (101904), from BioLegend, San Diego, CA, and CD4 cell enrichment kit: 19752A, Stemcell Technologies, Cambridge, MA) and the 4×10^5 of CD4^+CD45RB^highCD25− cells were transferred 6-7 weeks old CB-17 SCID mice. Recipient mice were randomized based on their body weight (n=12 mice/group), and received […] of vehicle (0.5% methyl-cellulose) (vehicle control), 0.5 mg per mouse of anti-IL-12 (positive control), 30 mg/kg of olsalazine (positive treatment group), and 100 mg/kg of compound 44 (compound treatment group) through day 42. On day 42, animals were anesthetized with Isoflurane and bled to exsanguination followed by cervical dislocation. The entire colon was removed and the overall efficacy of compound 44 was assessed based on colon length and weight per length. […] Statistical analysis was performed with GraphPad Prism (GraphPad Software). Mann-Whitney U test was used to assess significance between the vehicle control and each treatment group.

naïve CD4+ T cells = assay: Human regulatory T cell differentiation assay; type: cell-based; conditions: 6 days
Protocol: Peripheral blood mononuclear cells (PBMCs) from whole blood donated by health volunteers were separated by Ficoll-Paque gradient centrifugation and naïve CD4^+ T cells were subsequently isolated using magnet beads (EasySep™ Human Naïve CD4^+ T Cell Isolation Kit, Cambridge, MA). For regulatory T cell (Treg) differentiation assay, naïve CD4^+ T cells were cultured (1-10×10^4 cells) in CTS OpTmizer medium for 6 days and stimulated with 5 ng/ml TGF-β, 100 U/ml IL-2, and ImmunoCult™ Human […] T Cell Activator; Stemcell #10990) with/without our Compounds. Cell viability was determined using a viability dye (eBioscience Fixable Viability Dye eFluor 780: ThermoFisher 65-0865-14) at 1:500 dilution. The cells were gated for Treg, defined as Live, CD11c^−, CD14^−, CD19^−, CD8^−, CD4^+, CD3^+, CD25^+, FOXP3^+. Percent (%) Tregs were calculated as percentage of CD4^+, CD25^+, FOXP3^+ cells over total CD4 T cells. Statistical analysis was performed with GraphPad Prism Software Using One-Way ANOVA.

SMILES: CC(=O)O [acetate]
- IL1β % DMSO control [1]: = ((=) 90%> <110% DMSO)
- IL6 % DMSO control [1]: = ((=) 90%> <110% DMSO)
- TNFα % of DMSO control [1]: = ((=) 90%> <110% DMSO)
- % IL-8 (Vehicle + LPS = 100%) (neutrophil; 500.0 μM): − (− = >90% Vehicle)
- % MIP-1α (Vehicle + LPS = 100%) (neutrophil; 500.0 μM): + (+ = <90% Vehicle)
- % MIP-1β (DMSO + LPS = 100%) (neutrophil; 500.0 μM): + (+ = <90% Vehicle)
- % IL-8 (Vehicle + LPS = 100%) (neutrophil; 1000.0 μM): − (− = >90% Vehicle)
- % MIP-1α (Vehicle + LPS = 100%) (neutrophil; 1000.0 μM): ++ (++ = <70%Vehicle)
- % MIP-1β (DMSO + LPS = 100%) (neutrophil; 1000.0 μM): + (+ = <90% Vehicle)
- % IL-8 (Vehicle + LPS = 100%) (neutrophil; 3000.0 μM): +++ (+++ = <50% Vehicle)
- % MIP-1α (Vehicle + LPS = 100%) (neutrophil; 3000.0 μM): +++ (+++ = <50% Vehicle)
- % MIP-1β (DMSO + LPS = 100%) (neutrophil; 3000.0 μM): +++ (+++ = <50% Vehicle)
- % Change in TEER from DMSO (Caco-2 colonocytes; 1 mM + cytokines): − (<125%: −)
- % Change in TEER from DMSO (Caco-2 colonocytes; 3 mM + cytokines): − (<125%: −)

SMILES: CC(O)CC(=O)O (stereo not drawn) [beta-hydroxybutyric acid, β-hydroxybutyric acid]
- IL1β % DMSO control [1]: − ((−) >110% DMSO)
- IL6 % DMSO control [1]: = ((=) 90%> <110% DMSO)
- TNFα % of DMSO control [1]: − ((−) >110% DMSO)
- % IL-8 (Vehicle + LPS = 100%) (neutrophil; 200.0 μM): − (− = >90% Vehicle)
- % MIP-1α (Vehicle + LPS = 100%) (neutrophil; 200.0 μM): − (− = >90% Vehicle)
- % MIP-1β (DMSO + LPS = 100%) (neutrophil; 200.0 μM): + (+ = <90% Vehicle)
- % IL-8 (Vehicle + LPS = 100%) (neutrophil; 2000.0 μM): + (+ = <90% Vehicle)
- % MIP-1α (Vehicle + LPS = 100%) (neutrophil; 2000.0 μM): ++ (++ = <70%Vehicle)
- % MIP-1β (DMSO + LPS = 100%) (neutrophil; 2000.0 μM): + (+ = <90% Vehicle)
- % Change in TEER from DMSO (Caco-2 colonocytes; 200 μM + cytokines): + (125%> <150%: +)
- % Change in TEER from DMSO (Caco-2 colonocytes; 2 mM + cytokines): − (<125%: −)

SMILES: CC(O)CCO (stereo not drawn) [butanediol, 1,3-butanediol]
- IL1β % DMSO control [1]: = ((=) 90%> <110% DMSO)
- % IL-8 (Vehicle + LPS = 100%) (neutrophil; 100.0 μM): − (− = >90% Vehicle)
- % MIP-1α (Vehicle + LPS = 100%) (neutrophil; 100.0 μM): − (− = >90% Vehicle)
- % MIP-1β (DMSO + LPS = 100%) (neutrophil; 100.0 μM): + (+ = <90% Vehicle)
- % IL-8 (Vehicle + LPS = 100%) (neutrophil; 500.0 μM): − (− = >90% Vehicle)
- % MIP-1α (Vehicle + LPS = 100%) (neutrophil; 500.0 μM): − (− = >90% Vehicle)
- % MIP-1β (DMSO + LPS = 100%) (neutrophil; 500.0 μM): + (+ = <90% Vehicle)
- Average CYP1A1 mRNA levels (AhR; 500.0 μM): − (- = <2-fold Vehicle)

SMILES: O=C(O)c1cc(/N=N/c2ccc(O)c(C(=O)O)c2)ccc1O [olsalazine, reference compound]
- colon weight per length (FIG. 3B) [2]: significantly increased the colon weight per length

SMILES: O=C(O[C@@H]1Cc2c(O)cc(O)cc2O[C@@H]1c1cc(O)c(O)c(O)c1)c1cc(O)c(O)c(O)c1 [EGCG, epigallocatechin gallate]
- % IL-8 (Vehicle + LPS = 100%) (neutrophil; 0.1 μM): − (− = >90% Vehicle)
- % MIP-1α (Vehicle + LPS = 100%) (neutrophil; 0.1 μM): − (− = >90% Vehicle)
- % MIP-1β (DMSO + LPS = 100%) (neutrophil; 0.1 μM): − (− = >90% Vehicle)
- % IL-8 (Vehicle + LPS = 100%) (neutrophil; 1.0 μM): − (− = >90% Vehicle)
- % MIP-1α (Vehicle + LPS = 100%) (neutrophil; 1.0 μM): − (− = >90% Vehicle)
- % MIP-1β (DMSO + LPS = 100%) (neutrophil; 1.0 μM): − (− = >90% Vehicle)
- Average CYP1A1 mRNA levels (AhR; 0.1 μM): − (- = <2-fold Vehicle)
- Average CYP1A1 mRNA levels (AhR; 1.0 μM): − (- = <2-fold Vehicle)
- % Change in TEER from DMSO (Caco-2 colonocytes; 100 nM + cytokines): − (<125%: −)
- % Change in TEER from DMSO (Caco-2 colonocytes; 1 μM + cytokines): − (<125%: −)
- Cell viability % DMSO (naïve CD4+ T cells; 100 nM): = (90%> <110%: =)
- Treg induction % DMSO (naïve CD4+ T cells; 100 nM): = (90%> <110%: =)
- Cell viability % DMSO (naïve CD4+ T cells; 1 uM): = (90%> <110%: =)
- Treg induction % DMSO (naïve CD4+ T cells; 1 uM): = (90%> <110%: =)
